Measured values taken from US6352998B2, “Pharmaceutical compositions” (Novartis AG, priority 1997, dated 2002).

Test system: chronic plaque psoriasis
Experiment: Topical treatment of chronic plaque psoriasis in humans, once a day
Type: in vivo
Conditions: topical application of 0.01 to 1% w/w once a day

Row | Molecule | Efficacy in the treatment of chronic plaque psoriasis
1 | [3S-[3R*[E(1S*,3S*,4S*)],4S*,5R*,8S*,9E,12R*,-14R*,15S*,16R*,18S*,19S*,26aR*]]-5,6,8,11,12,13,14,15,16,17,18,19,24,25,26,26a-hexadecahydro-5,19-dihydroxy-3-(3-hydroxymethylcyclopentyl)-1-methylethenyl)]-14,16-dimethoxy-4,10,12,18,-tetramethyl-8-ethyl-15,19-epoxy-3H-pyrido[2,1-c][1,4]oxaazacyclotricosine-1,7,20,21(4H,23H)-tetrone [Compound 2] | effective
2 | CC[C@@H]1/C=C(\C)C[C@H](C)C[C@H](OC)[C@H]2O[C@@](O)(C(=O)C(=O)N3CCCC[C@H]3C(=O)O[C@H](/C(C)=C/[C@@H]3CC[C@@H](O)[C@H](OC)C3)[C@H](C)[C@@H](O)CC1=O)[C@H](C)C[C@@H]2OC (relative stereo) [Compound 3, [3S-[3R*[E(1S*,3S*,4S*)],4S*,5R*,8S*,9E,12R*,14R*,15S*,16R*,18S*,-19S*,26aR*]]-5,6,8,11,12,13,14,15,16,17,18,19,24,25,26,26a-hexadecahydro-5,19-dihydroxy-3-[2-(4-hydroxy-3-methoxy-cyclohexyl)-1-methylethenyl)]-14,16-dimethoxy4,10,12,18,-tetramethyl-8-ethyl-15,19-epoxy-3H-pyrido[2,1-c][1,4]oxaazacyclotricosine-1,7,20,21(4H,23H)-tetrone] | effective
